Test results reported in patent US4448962A, “Substituted quinoline carboxylic acid derivatives” (Kyorin Seiyaku Kabushiki Kaisha, priority 1978, dated 1984).
In brackets after ≈: the same amount, converted by molar mass. Where a name gives a salt, the structure may show the parent alone. Read-outs that look alike come from different tables or passages of the source.

Columns and labels:
Test in all cases: Antibacterial spectrum (Minimum Inhibitory Concentration)
Format in all cases: cell-based
[1] = tested on: Bacillus subtilis PCI 219; conditions: PCI219; Bacillus subtilis PCI 219, Gram +; read-out: Minimum Inhibitory Concentration
From the text: (§1) The antibacterial tests were done according to the method authorized by the Chemotherapeutic Society of Japan.

E. coli ATCC 10536 = conditions: Escherichia coli, ATCC10536; E. coli ATCC 10536, Gram -; read-out: Minimum Inhibitory Concentration
From the text: as §1

[2] = tested on: Escherichia coli NIHJ JC-2; conditions: NIHJJC2; Escherichia coli NIHJ JC-2, Gram -; read-out: Minimum Inhibitory Concentration
From the text: as §1

[3] = tested on: Klebsiella pneumoniae IFO 3512; conditions: IFO3512; Klebsiella pneumoniae IFO 3512, Gram -; read-out: Minimum Inhibitory Concentration
From the text: as §1

Pr. vulgaris XK Denken = conditions: Proteus vulgaris; Pr. vulgaris XK Denken, Gram -; read-out: Minimum Inhibitory Concentration
From the text: as §1

[4] = tested on: Proteus vulgaris IFO 3167; conditions: IFO3167; Proteus vulgaris IFO 3167, Gram -; read-out: Minimum Inhibitory Concentration
From the text: as §1

Ps. aeruginosa IFO 12689 = conditions: Pseudomonas aeruginosa
From the text: as §1

[5] = tested on: Pseudomonas aeruginosa V-1
From the text: as §1

Sta. aureus ATCC 14775 = conditions: Staphylococcus aureus, ATCC14775; Sta. aureus ATCC 14775, Gram +; read-out: Minimum Inhibitory Concentration
From the text: as §1

[6] = tested on: Staphylococcus aureus 209P; conditions: Staphylococcus aureus 209P, Gram +; read-out: Minimum Inhibitory Concentration
From the text: as §1

[7] = IFO12689, Ps. aeruginosa IFO 12689, Gram -, read-out: Minimum Inhibitory Concentration
[8] = V1, Pseudomonas aeruginosa V-1, Gram -, read-out: Minimum Inhibitory Concentration

| Compound | MIC [1] [µg/mL] | MIC (E. coli ATCC 10536) [µg/mL] | MIC [2] [µg/mL] | MIC [3] [µg/mL] | MIC (Pr. vulgaris XK Denken) [µg/mL] | MIC [4] [µg/mL] | MIC (Ps. aeruginosa IFO 12689; [7]) [µg/mL] | MIC [5, 8] [µg/mL] | MIC (Sta. aureus ATCC 14775) [µg/mL] | MIC [6] [µg/mL] | MIC ([5]; Pseudomonas aeruginosa, V1, read-out: Minimum Inhibitory Concentration) [µg/mL] | MIC (Ps. aeruginosa IFO 12689; IFO12689, read-out: Minimum Inhibitory Concentration) [µg/mL] |
| --- | --- | --- | --- | --- | --- | --- | --- | --- | --- | --- | --- | --- |
| CCn1cc(C(=O)O)c(=O)c2ccc(N3CCNCC3)c(F)c21 [Example 16, 1-ethyl-7-(1-piperazinyl)-8-fluoro-4-oxo-1,4-dihydroquinoline-3-carboxylicacid hydrochloric] | 3.13 (≈ 9.8 µM) | 0.78 (≈ 2.44 µM) | 0.78 (≈ 2.44 µM) | 0.2 (≈ 0.626 µM) | 1.56 (≈ 4.89 µM) | 0.78 (≈ 2.44 µM) | 12.5 (≈ 39.1 µM) | 1.56 (≈ 4.89 µM) | 25 (≈ 78.3 µM) | 12.5 (≈ 39.1 µM) |  |  |
| CCn1cc(C(=O)O)c(=O)c2cc(Cl)c(N3CCN(Cc4ccccc4)CC3)cc21 [Example 11, 1-ethyl-6-chloro-7-(4-benzyl-1-piperazinyl)-4-oxo-1,4-dihydroquinoline-3-carboxylic acid] | 1.56 (≈ 3.66 µM) | 25 (≈ 58.7 µM) | 100 (≈ 235 µM) | 0.78 (≈ 1.83 µM) | 50 (≈ 117 µM) | 100 (≈ 235 µM) | > 100 |  |  | 3.13 (≈ 7.35 µM) | > 100 |  |
| O=C(O)c1cn(Cc2ccccc2)c2cc(N3CCNCC3)c(F)cc2c1=O [Example 20, 1-benzyl-6-fluoro-1,4-dihydro-4-oxo-7-(1-piperazinyl)-quinoline-3-carboxylic acid] | 0.78 (≈ 2.05 µM) | 0.39 (≈ 1.02 µM) | 0.78 (≈ 2.05 µM) | 0.39 (≈ 1.02 µM) | 0.78 (≈ 2.05 µM) | 0.39 (≈ 1.02 µM) |  | 1.56 (≈ 4.09 µM) | 6.25 (≈ 16.4 µM) | 1.56 (≈ 4.09 µM) |  | 6.25 (≈ 16.4 µM) |
| CCCn1cc(C(=O)O)c(=O)c2cc(F)c(N3CCNCC3)cc21 [Example 19, 1-propyl-6-fluoro-7-(1-piperazinyl)-4-oxo-1,4-dihydroquinoline-3-carboxylic acid hydrochloride] | 0.39 | 0.39 | 0.2 | 0.2 | 0.39 | 0.2 | 12.5 | 3.13 | 3.13 | 1.56 |  |  |
| CCn1cc(C(=O)O)c(=O)c2cc(F)c(N3CCN(N=O)CC3)cc21 [Example 24, 1-ethyl-6-fluoro-7-(4-nitroso-1-piperazinyl)-4-oxo-1,4-dihydroquinoline-3-carboxylic acid] | 0.39 (≈ 1.12 µM) | 0.39 (≈ 1.12 µM) | 0.39 (≈ 1.12 µM) | 0.39 (≈ 1.12 µM) | 0.39 (≈ 1.12 µM) | 0.39 (≈ 1.12 µM) | 6.25 (≈ 17.9 µM) | 3.13 (≈ 8.99 µM) | 0.78 (≈ 2.24 µM) | 0.39 (≈ 1.12 µM) |  |  |
| CCOC(=O)c1cn(CC)c2cc(N3CCNCC3)c(F)cc2c1=O [Example 17, 1-ethyl-6-fluoro-7-(1-piperazinyl)-4-oxo-1,4-dihydroquinoline-3-carboxylicacid ethyl ester] | 50 (≈ 144 µM) | 6.25 (≈ 18 µM) | 12.5 (≈ 36 µM) | 6.25 (≈ 18 µM) | 25 (≈ 72 µM) | 12.5 (≈ 36 µM) | > 100 | 50 (≈ 144 µM) | 100 (≈ 288 µM) | 50 (≈ 144 µM) |  |  |
| CCN1CCN(c2cc3c(cc2Cl)c(=O)c(C(=O)O)cn3CC)CC1 [Example 10, 1-ethyl-6-chloro-7-(4-ethyl-1-piperazinyl)-4-oxo-1,4-dihydroquinoline-3-carboxylic acid] | 0.78 (≈ 2.14 µM) | 0.78 (≈ 2.14 µM) | 1.56 (≈ 4.29 µM) | < 0.2 | 1.56 (≈ 4.29 µM) | 1.56 (≈ 4.29 µM) | > 100 | 50 (≈ 137 µM) |  | 0.78 (≈ 2.14 µM) |  |  |
| CCn1cc(C(=O)O)c(=O)c2cc(F)c(N3CCN(C(C)=O)CC3)cc21 [Example 29, 1-ethyl-6-fluoro-1,4-dihydro-4-oxo-7-(4-acetyl-1-piperazinyl)quinoline-3-carboxylic acid] | 0.2 (≈ 0.553 µM) | 1.56 (≈ 4.32 µM) | 1.56 (≈ 4.32 µM) | < 0.1 | 1.56 (≈ 4.32 µM) | 0.39 (≈ 1.08 µM) | 25 (≈ 69.2 µM) | 25 (≈ 69.2 µM) | 1.56 (≈ 4.32 µM) | 0.78 (≈ 2.16 µM) |  |  |
